# In US20150050410A1, “COMPOUNDS, COMPOSITIONS, AND METHODS FOR MODULATING SWEET TASTE” (Chromocell Corporation, priority 2013, published 2015):
# Legend:
# [1] = test system: perception of the sweet taste in humans; test: Trained descriptive analysis (DA) panel, sweet attribute; type: in vivo; conditions: for compound effects beyond the additive effect of inherent sweetness: 4% fructose and 8% sucrose; for DA Panel Average Sweetness Intensity Score (on 15 cm scale): inherent sweetness, 35 ppm compound plus solubilizing agent, 1 cm = 1% sucrose
# Description: The effect of the test compounds on the perception of the sweet taste in an aqueous environment, in the absence or presence of carbohydrate sweeteners, was evaluated using a descriptive analysis methodology with a group of trained panelists, as follows.
# Candidate panelists were recruited, with prescreening and personal interviews, and were assessed for their ability to detect, recognize and differentiate basic taste attributes or mixtures thereof as part of a standardized acuity test. These candidate panelists were also assessed for their innate ability to identify flavors, and to rank on intensity scales. Other senses such as smell and vision were also included as part of the assessment. Candidates also were screened for their ability to use the language to describe and articulate ideas.
# Selected candidates proceeded to training as a group in three phases: (1) Lexicon development, (2) Concept alignment, and (3) Scaling descriptors. During lexicon development, panelists evaluated products appropriate for use in the study to generate and align on terms describing the flavor, taste, aromatic, trigeminal, and temporal attributes. During concept alignment, the panel evaluated the products mentioned above to clarify and confirm the attributes that were generated during lexicon development using reference standards that appropriately define each attribute; these are either physical references (e.g. sucrose solutions) or verbal descriptions (e.g. overall flavor). Product terms and concepts were validated during this portion of the study.
# In the last phase, scaling descriptors, the panel participated in a series of exercises focused on ordering and ranking samples according to relative attribute intensity, measuring attribute intensity using a defined length of line scale. Whenever possible, different levels or concentration of references were used as anchors to facilitate use of the scale. Panelists were provided with blinded references at this stage to evaluate their understanding and perception of the scale.
# The panel used in this example was trained to reference sweet attributes in an absolute manner, such that a particular concentration of sweetener is always measured by the panelists at the same point using a 15 cm line scale where each cm represents a 1% increase in sucrose to cover the range of 0% to 15% sucrose. For the rest of the attributes, the panel was trained using a hybrid approach between descriptive analysis methods (e.g. quantitative descriptive analysis, the sensory spectrum, etc.) well-known to those skilled in the art.
# The trained panel was then used for a descriptive analysis assessment for Compounds 1, 2 and 3 in aqueous solutions at pH 3 and pH 7. Each of the three compounds was tested at 35 ppm in sucrose and fructose sweeteners. In addition, Compounds 1, 2 and 3 were also examined in water at pH 3 and pH 7 to assess for any inherent sweetness.
# The aqueous sweetener solutions were prepared by adding, fructose or sucrose (by weight), to water to achieve the desired concentration. Aqueous sucrose solutions at pH 3 were buffered using a final concentration of 0.096% Citric Acid plus 0.036% Sodium Citrate while aqueous fructose solutions at pH 3 were buffered using a final concentration of 0.06% Citric Acid and 0.0225% Sodium Citrate.
# Compounds were first prepared as a […] concentrated stock solution in 100% ethanol. These concentrated stocks were then added to the aqueous sweetener solutions to result in a final ethanol concentration of 0.2%. In addition to compounds, a solubilizing agent at a final concentration of 0.02% was added to the aqueous sweetener solutions. Control samples were also balanced with 0.2% ethanol and in certain cases 0.02% solubilizing agent.
# Both control (aqueous sweetener solutions without compound) and variant (aqueous sweetener solutions with compound) samples were blinded and randomized (by sweetener and pH blocks). […]
# tasters = conditions: DuBois, et al., J. Med. Chem., 1981; cited from earlier work
# [2] = test system: perception of the sweet taste of an aqueous solution of sweetener in humans; test: Two-alternative forced choice "sip and spit" method (2AFC); type: in vivo
# Description: The taste test panelists used in the Examples 1-3 were selected using a sensory acuity screening program. Candidate taste panelists were recruited, with prescreening and personal interviews, and were assessed and for their ability to detect, recognize and differentiate basic taste attributes or mixtures thereof as part of a standardized acuity test. This included basic tastes of sweet, sour, salty, bitter and umami, as well as having the capacity to focus on specific aspects of sensory character such as ranking the various tastes perceived and identifying the basic tastes presented at threshold levels.
# The effect of the test compounds on the perception of the sweet taste of an aqueous solution of sweetener in humans was evaluated using a two-alternative forced choice “sip and spit” method (2AFC).
# The aqueous sweetener solutions were prepared by adding, fructose, sucrose or glucose (by weight), to water to achieve the desired concentration.
# Compounds were first prepared as a 500-fold concentrated stock solution in 100% ethanol. These concentrated stocks were then added to the aqueous sweetener solutions to result in a final ethanol concentration of 0.2%. The control (positive and negative) samples were also normalized to 0.2% ethanol. This level of ethanol was not seen to contribute any perceived sweetness.
# The 2AFC test used for compound evaluation was a blind and randomized test where taste panelists (n=15) evaluate a pair of sweetener solutions at a time one sample contains aqueous sweetener solution plus compound (i.e. test) while the other contains aqueous sweetener solution at higher concentration without compound (i.e. positive control). Each test sample was compared against a positive control. For example, if the test sample contained 1× sweetener concentration with compound (e.g. 5% sucrose with compound), the positive control sample contained a 1.1× sweetener concentration (e.g. 5.5% sucrose without compound).
# Panelists were instructed not to eat or drink (except water) for at least 1 h before the test. During the test, panelists were instructed to sip each sample, swirl it around their mouth and then expectorate. After tasting each sample in the pair, panelists were instructed to record the sample that is “sweeter” in taste. Panelists cleansed their palates by rinsing with water, eating a cracker and waiting for an interval of about 5 minutes. Each pair was tasted twice. All samples were tasted at ambient temperatures. Data were analyzed using binomial probabilities.
# Approximate levels of sweetness enhancement in column 5 of Table 2 were calculated as follows:
# Approximate levels of sweetness enhancement=Sweetener concentration of positive control surpassed by the test sample, divided by sweetener concentration for compound-containing sample (e.g. 1.15×=5.75% sucrose/5% sucrose).
smiles,measurement,setting,value
"COc1ccc(C2CC(=O)c3c(O)cccc3O2)cc1O (racemic) [Compound 1, 5-hydroxy-2-(3-hydroxy-4-methoxyphenyl)chroman-4-one]",compound effects beyond the additive effect of inherent sweetness,"[1]; pH 3, 35 ppm, Table 7 vs Table 5",super-additive effects
same,compound effects beyond the additive effect of inherent sweetness,"[1]; pH 7, 35 ppm, Table 6 vs Table 4",super-additive effects
same,perceived sweetness compared to control sweetener solutions (FIG. 2),"[1]; aqueous fructose and sucrose solutions at pH 3, 35 ppm, ** p<0.01",significant increase in perceived sweetness
same,perceived sweetness compared to control sweetener solutions (FIG. 1),"[1]; aqueous fructose and sucrose solutions at pH 7, 35 ppm, ** p<0.01",significant increase in perceived sweetness
same,DA Panel Average Sweetness Intensity Score (on 15 cm scale),[1]; citric acid-citrate solution pH 3,do not show further significant increase in perceived inherent sweetness
same,DA Panel Average Sweetness Intensity Score (on 15 cm scale),[1]; water pH 7,further increase in perceived sweetness
same,reported sweet flavor,tasters,sweet flavor
same,Fold increase in perceived sweetness,"[2]; test sample 4% fructose, compound 25 ppm, positive control conc. / test sample conc.",>1.20X
same,Sweetener Concentration of positive control surpassed by test sample,"[2]; test sample 4% fructose, positive control fructose, compound 25 ppm",> 4.8%
same,Sweetener Concentration of positive control surpassed by test sample,"[2]; test sample 5% sucrose, positive control sucrose, compound 15 ppm",> 5.75%
same,Sweetener Concentration of positive control surpassed by test sample,"[2]; test sample 6.5% glucose, positive control glucose, compound 10, 25 ppm",> 7.48%
